According to patent US6607727B1, “Peptides for inducing cytotoxic T lymphocyte responses to hepatitus B virus” (priority 1991, dated 2003):

Experiments:
[1] = system: PBMCs from a patient with acute hepatitis; assay: CTL response to HBx peptide in PBMCs of a patient with acute hepatitis, HLA-A2 matched peptide-pulsed targets; assay type: cell-based, human
[2] = system: HBpol455-463 specific CTL; assay type: cell-based, human
[3] = system: PBMCs from a patient with acute hepatitis; assay: CTL response to HBenv 348-357 peptide in PBMCs of a patient with acute hepatitis, HLA-A2 matched targets; assay type: cell-based, human
Method: The CTL induced by the HBenv 348-357 peptide were identified in PBMCs from a patient with acute hepatitis according to the procedure set forth in Example XV, except that the PMBCs were stimulated with individual peptide rather than peptide mixtures. The resulting CTL line was then tested for the ability to kill HLA-A2 matched target cells that were pulsed with the peptide or that expressed endogenous envelope antigens of ayw or adw subtypes.

[4] = system: CTL clone 3D11 (HLA A31 restricted); assay type: cell-based, human
CTL clones 3D11 and 2D7 = details: peptide 10-3 μM to 1μM
[5] = system: CTL clone 2D7 (HLA Aw68 restricted); assay type: cell-based, human

## AIRLKVFVL [HBx peptide 126-134 with the amino terminal residue substituted with alanine]
[1]
  induction of specific CTL response by peptide: CTL were stimulated

## EIRLKVFVL
[1]
  induction of specific CTL response by peptide: not able to induce a specific CTL response
  recognition by CTL induced with the analog peptide AIRLKVFVL: also recognized the peptide with the wild type sequence

## GVSRYVARL [variant of HBpol455-463 (ayw isolate)]
[2]
  recognition by GLSRYVARL (HBpol455-463) induced CTL: poorly recognized

## Gly-Leu-Ser-Pro-Thr-Val-Trp-Leu-Ser-Val (GLSPTVWLSV; printed: Gly-Leu-Ser-Pro-Thr-Val-Trp-Leu-Ser-Val) [HBenv peptide 348-357]
[3]
  CTL recognition of envelope antigen of the adw subtype: did not recognize the adw subtype
[3]; effector:target cell ratio of 3:1
  CTL response to target cells pulsed with peptide: responded to target cells

## STLPETTVVRR [141-151]
[4]
  Clone 3D11 Restriction Element A31 Percent 51CR Release: 69%
CTL clones 3D11 and 2D7
  efficiency of target lysis in dose titration: minimal optimally recognized epitope recognized by both of the CTL clones
[5]
  Clone 2D7 Restriction Element Aw68 Percent 51CR Release: 66%
